Results: ChEMBL document CHEMBL1201862, “PubChem BioAssay data set” (2004)
Active and inactive are the calls of the source. Cut-off read from the data, not from the text of the source, for most assays here: actives have a measured EC50 and inactives only a lower limit.

Key:
Streptokinase A = target: T1, Streptokinase A (Streptococcus pyogenes serotype M1, UniProt P10520); assay: viability-normalized secreted streptokinase activity reduction – plasminogen activation absorbance, OD405, dose response (AID 1914); format: functional, Streptococcus pyogenes M1 GAS;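 note: secreted streptokinase activity via plasminogen activation per viability signal from cell pellet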
T1 sequence (P10520 whole entry): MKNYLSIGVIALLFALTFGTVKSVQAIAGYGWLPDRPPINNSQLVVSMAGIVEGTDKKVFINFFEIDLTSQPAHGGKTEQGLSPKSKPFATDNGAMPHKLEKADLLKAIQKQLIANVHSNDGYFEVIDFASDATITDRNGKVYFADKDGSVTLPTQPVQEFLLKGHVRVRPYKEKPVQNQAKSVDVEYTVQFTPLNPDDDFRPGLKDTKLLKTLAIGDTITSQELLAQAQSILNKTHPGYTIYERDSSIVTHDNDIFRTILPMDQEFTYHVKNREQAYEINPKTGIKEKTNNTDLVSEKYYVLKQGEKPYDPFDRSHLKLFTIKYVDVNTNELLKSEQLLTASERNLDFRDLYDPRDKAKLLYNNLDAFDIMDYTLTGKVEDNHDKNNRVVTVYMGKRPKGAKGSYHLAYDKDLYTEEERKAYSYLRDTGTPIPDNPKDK

[1] = system: Streptococcus sp. 'group A'; assay: Streptococcus pyogenes SK(-)GAS viability under kanamycin – luminescence, BacTiterGlo, confirmation, counter-screen for streptokinase expression inhibitor project, dose response (AID 1900); format: functional, organism-based
HEK293 [2] = assay: inhibition of NOD1-driven NF-kB reporter – cell-based, luminescence, uHTS, primary screen (AID 1578); format: functional; settings: Homo sapiens
HEK293 [3] = assay: cells; format: functional, cell-based; settings: Homo sapiens
HEK293 [4] = assay: cells; format: functional, cell-based; settings: Homo sapiens; remark: listed apart in the source
Streptococcus = assay: GAS UMAA2166 growth inhibition – luminescence, BacTiterGlo, counter-screen for streptokinase expression inhibitor project, dose response (AID 1915); format: functional, organism-based;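 note: potency for reduction of bacterial viability or growth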
HEK293 [5] = assay: NOD2 signaling inhibitors in MDP-stimulated cells, cell-based, uHTS, luminescence (AID 2001); format: functional; settings: Homo sapiens
[6] = target: Heat shock protein HSP 90-alpha (Homo sapiens, UniProt P07900); format: functional, organism-based
HEK293 [7] = assay: EBV LMP1 TES2 canonical NF-kB signalling blockers – cell-based, HEK293, luciferase, cherry-pick, dose response (AID 588343); format: functional; settings: Homo sapiens
[8] = luciferase reporter signal suppression in cells – H4 neuroglioma cells, luminescence, dose response (AID 1990); format: functional, cell-based
[9] = Luminescence Cell-Based Dose Response HTS to Identify Inhibitors of 5'UTR Stem-Loop Driven Prion Protein mRNA Translation in H4 Neuroglioblastoma Cells. [Related pubchem assays: 1827 (Project Summary), 1813 (Primary HTS)]; format: functional
[10] = alpha-synuclein stem-loop luciferase translation blockers – H4 neuroglioma cells, luminescence, confirmation (AID 1988); format: functional, cell-based
Nonstructural protein 1 = Nonstructural protein 1 (Influenza A virus, UniProt Q194T2); format: functional, Influenza A virus (A/California/07/2009(H1N1))
Chain of Nonstructural protein 1 (Q194T2 whole entry): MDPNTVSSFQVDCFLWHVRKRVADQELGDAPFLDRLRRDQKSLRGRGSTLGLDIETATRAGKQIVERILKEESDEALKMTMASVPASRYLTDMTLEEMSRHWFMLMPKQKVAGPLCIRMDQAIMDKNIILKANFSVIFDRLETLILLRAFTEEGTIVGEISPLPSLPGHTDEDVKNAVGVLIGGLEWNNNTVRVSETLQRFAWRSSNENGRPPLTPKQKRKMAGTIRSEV

[11] = target: T2, Lysine-specific demethylase 4C (Homo sapiens, UniProt Q9H3R0); assay: inhibition of JMJD2C H3K9me3 demethylation – biochemical, DELFIA europium, cherry-picked samples, dose response (AID 488835); format: functional
T2 sequence (Q9H3R0 whole entry): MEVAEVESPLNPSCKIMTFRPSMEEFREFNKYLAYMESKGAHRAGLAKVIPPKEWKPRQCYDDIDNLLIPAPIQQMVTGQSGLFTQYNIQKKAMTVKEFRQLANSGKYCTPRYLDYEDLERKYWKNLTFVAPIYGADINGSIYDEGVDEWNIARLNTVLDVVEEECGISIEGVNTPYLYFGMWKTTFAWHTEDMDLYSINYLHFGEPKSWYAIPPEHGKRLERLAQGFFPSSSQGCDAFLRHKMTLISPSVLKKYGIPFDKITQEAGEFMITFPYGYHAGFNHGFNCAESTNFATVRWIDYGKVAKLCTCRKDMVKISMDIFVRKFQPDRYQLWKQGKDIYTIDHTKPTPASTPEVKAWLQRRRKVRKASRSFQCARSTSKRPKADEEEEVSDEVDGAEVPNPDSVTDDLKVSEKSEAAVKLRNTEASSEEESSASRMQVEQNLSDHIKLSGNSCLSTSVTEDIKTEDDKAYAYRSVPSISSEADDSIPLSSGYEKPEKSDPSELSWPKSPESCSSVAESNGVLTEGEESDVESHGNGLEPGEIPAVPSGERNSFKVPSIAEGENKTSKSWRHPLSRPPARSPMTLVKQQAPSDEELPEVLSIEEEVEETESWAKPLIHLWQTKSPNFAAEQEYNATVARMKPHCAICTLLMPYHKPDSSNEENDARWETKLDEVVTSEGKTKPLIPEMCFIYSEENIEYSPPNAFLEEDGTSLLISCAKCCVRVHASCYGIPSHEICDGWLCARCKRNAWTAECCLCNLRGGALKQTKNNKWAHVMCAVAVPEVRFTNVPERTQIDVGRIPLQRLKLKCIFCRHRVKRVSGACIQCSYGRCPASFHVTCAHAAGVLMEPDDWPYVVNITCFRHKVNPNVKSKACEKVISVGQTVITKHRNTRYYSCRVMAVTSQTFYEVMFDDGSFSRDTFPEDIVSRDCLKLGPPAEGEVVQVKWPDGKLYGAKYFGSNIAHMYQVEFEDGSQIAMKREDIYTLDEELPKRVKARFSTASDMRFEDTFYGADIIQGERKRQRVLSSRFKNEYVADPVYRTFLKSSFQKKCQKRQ

[12] = target: T3, Heat shock factor protein 1 (Mus musculus, UniProt P38532); assay: enhancement of HSF1-driven luciferase signal – cell-based, NIH3T3, luminescence, dose retest, confirmation (AID 435004); format: functional;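 note: stress induced by proteasome inhibitor MG132 added 30 min after compound; luciferase reporter driven by HSF1 response element in NIH3T3 cells; actives raise luminescence as potentiators of the MG132 stress response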
T3 sequence (P38532 whole entry): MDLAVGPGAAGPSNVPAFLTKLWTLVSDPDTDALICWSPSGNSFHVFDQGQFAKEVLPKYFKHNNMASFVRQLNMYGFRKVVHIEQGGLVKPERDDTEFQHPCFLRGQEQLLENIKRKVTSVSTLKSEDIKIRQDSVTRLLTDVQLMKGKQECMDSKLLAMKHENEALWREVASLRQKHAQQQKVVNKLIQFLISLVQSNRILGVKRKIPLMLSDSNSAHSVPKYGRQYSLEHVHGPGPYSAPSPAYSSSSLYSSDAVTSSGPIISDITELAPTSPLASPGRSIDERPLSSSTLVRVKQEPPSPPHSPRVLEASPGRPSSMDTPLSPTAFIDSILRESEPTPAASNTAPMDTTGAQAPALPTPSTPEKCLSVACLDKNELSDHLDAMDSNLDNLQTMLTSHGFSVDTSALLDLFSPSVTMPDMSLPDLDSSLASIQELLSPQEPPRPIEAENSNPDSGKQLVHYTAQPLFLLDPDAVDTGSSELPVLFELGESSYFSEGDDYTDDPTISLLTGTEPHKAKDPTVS

With `O=C(NC(NC(=S)Nc1ccccc1Cl)C(Cl)(Cl)Cl)c1cccc(Cl)c1` (stereo not drawn) the EC50 (Streptokinase A) was 5.81 µM (active), the EC50 [1] was 2.05 µM (active) and the EC50 (HEK293 [2]) was > 20 µM (inactive). For the same compound, the IC50 (HEK293 [3]) was 3.72 µM (active), the IC50 (HEK293 [4]) was 11.5 µM (active) and the EC50 (Streptococcus) was 3.79 µM (active). For the same compound, the IC50 (HEK293 [5]) was 3.78 µM (active).
With `CCc1sc(C(=O)Nc2nc(-c3ccccn3)cs2)cc1C` the AC50 [6] was 7.91 µM (active) and the AC50 (HEK293 [7]) was 1.33 µM (active).
With `CCOC(=O)c1sc(NC(=O)CNCc2ccccn2)c(C(=O)OCC)c1C` the EC50 [8] was 11.7 µM (active), the EC50 [9] was 9.71 µM (active) and the EC50 [1] was 0.195 µM (active). The EC50 [10] was 8.92 µM (active), the EC50 (Streptococcus) was 5.05 µM (active) and the IC50 (Nonstructural protein 1) was 8.76 µM (active). The AC50 (HEK293 [7]) was 2.35 µM (active).
With `COc1ccccc1/C=C1/SC(=S)N(C(C)C(=O)NC2C=CS(=O)(=O)C2)C1=O` (stereo not drawn) the AC50 [11] was > 60 µM (inactive) and the EC50 [12] was 57.9 µM (active).
